What was measured:
[1] = Drug uptake in human MDA-MB-231 cells at 2 uM incubated at 37 degree C measured after 6 hrs by HPLC analysis; type: ADME, cell-based; conditions: mda-mb-231, 6 h
[2] = target: T1, Catenin beta-1/Cadherin-1 (Homo sapiens, UniProt P35222); experiment: Inhibition of full length beta-catenin (1 to 686 residues) (unknown origin) expressed in Escherichia coli BL21 (DE3)/N-terminal biotinylated human E-cadherin (824 to 877 residues) protein-protein interaction incubated for 2 hr by fluorescence anisotropy binding assay
T1 sequence (P35222 whole entry): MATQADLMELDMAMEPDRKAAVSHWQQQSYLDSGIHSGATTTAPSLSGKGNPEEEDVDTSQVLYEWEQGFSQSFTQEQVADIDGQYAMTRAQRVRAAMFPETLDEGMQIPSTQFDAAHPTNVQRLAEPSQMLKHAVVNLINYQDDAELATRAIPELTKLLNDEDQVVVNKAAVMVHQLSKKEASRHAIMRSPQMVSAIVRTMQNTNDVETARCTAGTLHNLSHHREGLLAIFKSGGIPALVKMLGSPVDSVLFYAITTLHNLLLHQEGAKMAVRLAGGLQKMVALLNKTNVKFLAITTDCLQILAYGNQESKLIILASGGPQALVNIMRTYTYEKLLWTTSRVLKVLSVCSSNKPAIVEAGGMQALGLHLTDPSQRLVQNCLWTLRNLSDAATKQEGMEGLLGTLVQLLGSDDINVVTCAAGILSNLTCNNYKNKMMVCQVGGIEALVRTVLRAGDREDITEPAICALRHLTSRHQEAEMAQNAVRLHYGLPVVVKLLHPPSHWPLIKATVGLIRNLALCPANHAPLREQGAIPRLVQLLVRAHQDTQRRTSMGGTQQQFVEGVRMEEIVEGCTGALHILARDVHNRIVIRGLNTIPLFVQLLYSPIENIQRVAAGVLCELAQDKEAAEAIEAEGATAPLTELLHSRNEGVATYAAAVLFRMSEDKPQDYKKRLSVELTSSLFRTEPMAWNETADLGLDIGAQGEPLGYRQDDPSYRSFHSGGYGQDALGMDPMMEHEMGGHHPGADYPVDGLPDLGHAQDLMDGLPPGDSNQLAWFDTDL
T1 sequence (P12830 whole entry): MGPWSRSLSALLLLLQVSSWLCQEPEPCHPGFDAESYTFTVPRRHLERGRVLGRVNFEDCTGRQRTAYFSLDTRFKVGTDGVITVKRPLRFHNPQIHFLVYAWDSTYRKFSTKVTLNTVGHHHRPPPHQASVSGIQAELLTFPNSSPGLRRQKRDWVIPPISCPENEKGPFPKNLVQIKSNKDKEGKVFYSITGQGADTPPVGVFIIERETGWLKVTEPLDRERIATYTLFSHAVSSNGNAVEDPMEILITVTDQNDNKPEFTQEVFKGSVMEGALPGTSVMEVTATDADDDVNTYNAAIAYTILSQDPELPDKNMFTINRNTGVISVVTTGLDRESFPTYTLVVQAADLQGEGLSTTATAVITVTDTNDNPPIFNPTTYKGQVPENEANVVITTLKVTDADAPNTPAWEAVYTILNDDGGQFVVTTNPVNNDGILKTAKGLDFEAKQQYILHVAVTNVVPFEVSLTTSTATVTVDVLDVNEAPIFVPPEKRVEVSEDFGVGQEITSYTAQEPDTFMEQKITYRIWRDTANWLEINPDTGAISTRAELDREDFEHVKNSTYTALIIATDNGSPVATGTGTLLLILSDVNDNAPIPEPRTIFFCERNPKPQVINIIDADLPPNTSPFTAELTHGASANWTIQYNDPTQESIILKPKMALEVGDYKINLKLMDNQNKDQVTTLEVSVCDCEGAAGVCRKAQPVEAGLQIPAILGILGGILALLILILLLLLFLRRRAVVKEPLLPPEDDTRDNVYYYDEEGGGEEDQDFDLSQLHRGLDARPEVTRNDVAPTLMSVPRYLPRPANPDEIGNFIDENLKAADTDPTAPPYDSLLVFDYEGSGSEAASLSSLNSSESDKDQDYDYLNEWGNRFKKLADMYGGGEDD

`CC(C)(C)C1CCC(c2cc(C(=O)N3CCC(Oc4cc(N5CCNCC5)ccc4C#N)CC3)ccc2O[C@H]2CCNC2)CC1.Cl.Cl` (mixture of isomers; cis) gave a Drug uptake [1] of 88 µM and a Kd [2] of 67 µM.

Reference: ChEMBL document CHEMBL5226326, “Discovery of 1-Benzoyl 4-Phenoxypiperidines as Small-Molecule Inhibitors of the β-Catenin/B-Cell Lymphoma 9 Protein-Protein Interaction” (J Med Chem, 2021)
